Tested on: hearts of Dsg2^mut/mut mice
Test: Cytokine arrays in mouse hearts
Format: in vivo
Protocol: Three cohorts of mice at 8 weeks of age were anesthetized and implanted with subcutaneous osmotic mini-pumps (Alzet, Model 1004). These included: 1) Dsg2^mut/mut mice with pumps containing 50 μg/μL Bay11-7082 in a vehicle of 65% DMSO, 15% ethanol, and 20% saline; 2) Dsg2^mut/mut mice with pumps containing an equivalent volume of vehicle; and 3) wildtype mice with pumps containing vehicle. Mice in cohort 1 received 5 mg/kg/day of Bay11-7082 by continuous infusion; those in cohorts 2 and 3 received an equivalent volume of vehicle each day for 4 weeks. At 12 weeks of age, mice were re-anesthetized and new Alzet pumps were implanted for an additional 4 weeks of treatment.
Myocardium from mice was lyzed in RIPA buffer and cardiac myocytes from patient hiPSCs were lysed in TRIzol, and protein in lysates was quantified by standard BCA protein assay. Mouse (R&D Systems, Cat. No. ARY028) and Human (R&D Systems, Cat. No. ARY022B) Proteome Profiler XL Cytokine Arrays were blocked at room temperature for 1 hour before being incubated overnight at 4° C. with 200 μg of myocardial protein in blocking buffer supplied by manufacturer. Additional arrays were incubated overnight at 4° C. with 200 μl of hiPSC-cardiac myocyte culture medium according to the manufacturer's protocol for cell supernatants. Following overnight incubation, arrays were washed four times (10 minutes/wash), incubated at room temperature for 1 hour with Antibody Detection Cocktail, washed an additional four times (10 minutes/wash), then incubated with 1:2,000 Streptavidin-HRP in blocking buffer for 30 minutes at room temperature. Arrays were then washed four times and chemiluminescence was performed using the Chemi Reagent Mix included in the assay kits.
Data are presented as mean±SEM. Specific n-values are inset within each figure legend or table. P<0.05 was deemed statistically significant. As appropriate, associations between continuous dependent variables were tested using Student's paired/unpaired t-tests (binary independent variables) or one-way ANOVA (two or more variables). In the in vivo studies involving Dsg2^mut/mut mice, correlations between (i) ejection fraction and the amounts of myocardial fibrosis and apoptosis, (ii) cytokine expression levels and ejection fraction, and (iii) the levels of each individual cytokine against all other cytokines were made using Pearson's r analysis. Changes in cytokine levels in WT vs. Dsg2^mut/mut and/or untreated vs. Bay 11-7082-treated Dsg2^mut/mut mice were analyzed by two-way ANOVA with Tukey's post-hoc testing. The levels of any cytokines showing a significant change were then correlated with ejection fraction in each animal using Pearson's r analysis. In addition, the levels of all cytokines (n=111) were analyzed in a Pearson's correlation matrix table to correlate the expression level of each individual cytokine with all other cytokines.

[1] = Dsg2^mut/mut (Bay11-7082) vs Dsg2^mut/mut
[2] = Dsg2^mut/mut (Bay11-7082) vs WT
[3] = Dsg2^mut/mut mice with pumps containing 50 μg/μL Bay11-7082

Cc1ccc(S(=O)(=O)/C=C/C#N)cc1 [Bay 11-7082] was tested, and the Adiponectin expression [1] was <1, the Amphiregulin expression [1] was <1 and the Angiopoietin-1 expression [1] was <1. The Angiopoietin-2 expression [1] was 1-2, the “Angiopoietin-like 3 expression” value [1] was <1 and the BAFF/BLyS/TNFSF13B expression [1] was <1. The C1qR1/CD93 expression [1] was <1, the “C-Reactive Protein/CRP expression” value [1] was <1 and the CCL2/JE/MCP-1 expression [1] was <1. For the same molecule, the CCL3/CCL4/MIP-1a/B expression [1] was <1, the CCL5/RANTES expression [1] was <1 and the CCL6/C10 expression [1] was <1. The CCL17/TARC expression [1] was <1, the CCL19/MIP-3B expression [1] was <1 and the CCL20/MIP-3a expression [1] was <1. For the same molecule, the CCL21/6Ckine expression [1] was <1, the CCL22/MDC expression [1] was <1 and the CD14 expression [1] was 1-2. The CD40/TNFRSF5 expression [1] was <1, the CD160 expression [1] was <1 and the CX3CL1/Fractalkine expression [1] was <1. For the same molecule, the CXCL9/MIG expression [1] was <1, the CXCL13/BLC/BCA-1 expression [1] was <1 and the CXCL16 expression [1] was <1. For the same molecule, the Chemerin expression [1] was <1, the “Chitinase 3-like 1 expression” value [1] was <1 and the “Coagulation Factor III/Tissue Factor expression” value [1] was <1. The “Complement Component C5/C5a expression” value [1] was <1, the “Complement Factor D expression” value [1] was <1 and the “Cystatin C expression” value [1] was <1. The DKK-1 expression [1] was <1, the DPPIV/CD26 expression [1] was <1 and the E-Selectin/CD62E expression [1] was <1. The EGF expression [1] was <1, the Endoglin/CD105 expression [1] was <1 and the Endostatin expression [1] was <1. For the same molecule, the “Eotaxin (CCL11) expression” value [1] was <1, the FGF acidic expression [1] was <1 and the FGF-21 expression [1] was <1. For the same molecule, the “FLt-3 Ligand expression” value [1] was <1, the “Fetuin A/AHSG expression” value [1] was <1 and the G-CSF expression [1] was <1. For the same molecule, the GDF-15 expression [1] was <1, the GM-CSF expression [1] was <1 and the “Gas 6 expression” value [1] was <1. For the same molecule, the HGF expression [1] was <1, the “I-TAC (Cxcl11) expression” value [1] was <1 and the IFN-y expression [1] was <1. For the same molecule, the IGFBP-1 expression [1] was <1, the IGFBP-2 expression [1] was <1 and the IGFBP-3 expression [1] was <1. For the same molecule, the IGFBP-5 expression [1] was <1, the IGFBP-6 expression [1] was <1 and the “IL-1a (IL-1F1) expression” value [1] was <1. For the same molecule, the “IL-1ra (IL-1F3) expression” value [1] was <1, the “IL-1β (IL-1F2) expression” value [1] was <1 and the IL-2 expression [1] was <1. The IL-3 expression [1] was <1, the IL-4 expression [1] was <1 and the IL-5 expression [1] was <1. The IL-6 expression [1] was <1, the IL-7 expression [1] was <1 and the IL-10 expression [1] was <1. The IL-11 expression [1] was <1, the “IL-12 p40 expression” value [1] was <1 and the IL-13 expression [1] was <1. The IL-15 expression [1] was <1, the IL-17a expression [1] was <1 and the IL-22 expression [1] was <1. For the same molecule, the IL-23 expression [1] was <1, the “IL-27 p28 expression” value [1] was <1 and the IL-28A/B expression [1] was <1. For the same molecule, the IL-33 expression [1] was <1, the “IP-10 (CXL10/CRG-2) expression” value [1] was <1 and the “KC (CXCL1) expression” value [1] was <1. The “LDL R expression” value [1] was 1-2, the LIF expression [1] was <1 and the LIX expression [1] was <1. The Leptin expression [1] was <1, the Lipocalin-2/NGAL expression [1] was <1 and the M-CSF expression [1] was 1-2. For the same molecule, the “MCP-5 (CCL12) expression” value [1] was <1, the “MIP-2 (CXCL2) expression” value [1] was <1 and the MMP-2 expression [1] was 1-2. The MMP-3 expression [1] was 1-2, the MMP-9 expression [1] was <1 and the Myeloperoxidase expression [1] was <1. For the same molecule, the “Osteopontin (OPN) expression” value [1] was <1, the Osteoprotegerin/TNFRSF11B expression [1] was <1 and the P-Selectin/CD62P expression [1] was <1. For the same molecule, the PD-EGF/Thymidine phosphorylase expression [1] was <1, the PDGF-BB expression [1] was <1 and the “Pentraxin 2/SAP expression” value [1] was <1. For the same molecule, the “Pentraxin 3/TSG-14 expression” value [1] was <1, the Periostin/OSF-2 expression [1] was <1 and the Pref-1/DLK-1/FA1 expression [1] was <1. For the same molecule, the Proliferin expression [1] was <1, the “Proprotein Convertase 9/PCSK9 expression” value [1] was 1-2 and the RAGE expression [1] was <1. For the same molecule, the RBP4 expression [1] was <1, the Reg3G expression [1] was <1 and the Resistin expression [1] was <1. For the same molecule, the “Serpin E1/PAI-1 expression” value [1] was <1, the “Serpin F1/PEDF expression” value [1] was <1 and the TIM-1/KIM-1/HAVCR expression [1] was 1-2. The TNF-α expression [1] was <1, the Thrombopoeitin expression [1] was 1-2 and the VCAM-1/CD106 expression [1] was 1-2. The VEGF expression [1] was 1-2, the WISP-1/CCN4 expression [1] was <1 and the “sICAM-1 (CD54) expression” value [1] was <1. For the same molecule, the Adiponectin expression [2] was <1, the Amphiregulin expression [2] was <1 and the Angiopoietin-1 expression [2] was <1. For the same molecule, the Angiopoietin-2 expression [2] was <1, the “Angiopoietin-like 3 expression” value [2] was <1 and the BAFF/BLyS/TNFSF13B expression [2] was <1. The C1qR1/CD93 expression [2] was <1, the “C-Reactive Protein/CRP expression” value [2] was <1 and the CCL2/JE/MCP-1 expression [2] was <1. The CCL3/CCL4/MIP-1a/B expression [2] was <1, the CCL5/RANTES expression [2] was <1 and the CCL6/C10 expression [2] was <1. For the same molecule, the CCL17/TARC expression [2] was <1, the CCL19/MIP-3B expression [2] was <1 and the CCL20/MIP-3a expression [2] was <1. For the same molecule, the CCL21/6Ckine expression [2] was <1, the CCL22/MDC expression [2] was <1 and the CD14 expression [2] was <1. For the same molecule, the CD40/TNFRSF5 expression [2] was <1, the CD160 expression [2] was <1 and the CX3CL1/Fractalkine expression [2] was <1. The CXCL9/MIG expression [2] was <1, the CXCL13/BLC/BCA-1 expression [2] was 2-4 and the CXCL16 expression [2] was <1. The Chemerin expression [2] was <1, the “Chitinase 3-like 1 expression” value [2] was <1 and the “Coagulation Factor III/Tissue Factor expression” value [2] was <1. The “Complement Component C5/C5a expression” value [2] was <1, the “Complement Factor D expression” value [2] was <1 and the “Cystatin C expression” value [2] was <1. For the same molecule, the DKK-1 expression [2] was <1, the DPPIV/CD26 expression [2] was 1-2 and the E-Selectin/CD62E expression [2] was <1. The EGF expression [2] was 1-2, the Endoglin/CD105 expression [2] was <1 and the Endostatin expression [2] was <1. For the same molecule, the “Eotaxin (CCL11) expression” value [2] was <1, the FGF acidic expression [2] was <1 and the FGF-21 expression [2] was <1. For the same molecule, the “FLt-3 Ligand expression” value [2] was <1, the “Fetuin A/AHSG expression” value [2] was <1 and the G-CSF expression [2] was 1-2. For the same molecule, the GDF-15 expression [2] was <1, the GM-CSF expression [2] was <1 and the “Gas 6 expression” value [2] was <1. The HGF expression [2] was 4-6, the “I-TAC (Cxcl11) expression” value [2] was <1 and the IFN-y expression [2] was 1-2. The IGFBP-1 expression [2] was 1-2, the IGFBP-2 expression [2] was <1 and the IGFBP-3 expression [2] was <1. For the same molecule, the IGFBP-5 expression [2] was <1, the IGFBP-6 expression [2] was <1 and the “IL-1a (IL-1F1) expression” value [2] was <1. For the same molecule, the “IL-1ra (IL-1F3) expression” value [2] was 1-2, the “IL-1β (IL-1F2) expression” value [2] was 6-10 and the IL-2 expression [2] was <1. The IL-3 expression [2] was <1, the IL-4 expression [2] was <1 and the IL-5 expression [2] was <1. For the same molecule, the IL-6 expression [2] was <1, the IL-7 expression [2] was <1 and the IL-10 expression [2] was <1. For the same molecule, the IL-11 expression [2] was <1, the “IL-12 p40 expression” value [2] was 1-2 and the IL-13 expression [2] was 1-2. For the same molecule, the IL-15 expression [2] was 2-4, the IL-17a expression [2] was <1 and the IL-22 expression [2] was <1. For the same molecule, the IL-23 expression [2] was <1, the “IL-27 p28 expression” value [2] was <1 and the IL-28A/B expression [2] was 1-2. For the same molecule, the IL-33 expression [2] was 2-4, the “IP-10 (CXL10/CRG-2) expression” value [2] was <1 and the “KC (CXCL1) expression” value [2] was <1. For the same molecule, the “LDL R expression” value [2] was 1-2, the LIF expression [2] was <1 and the LIX expression [2] was >10. The Leptin expression [2] was 1-2, the Lipocalin-2/NGAL expression [2] was <1 and the M-CSF expression [2] was >20. The “MCP-5 (CCL12) expression” value [2] was <1, the “MIP-2 (CXCL2) expression” value [2] was <1 and the MMP-2 expression [2] was 4-6. For the same molecule, the MMP-3 expression [2] was <1, the MMP-9 expression [2] was <1 and the Myeloperoxidase expression [2] was 2-4. For the same molecule, the “Osteopontin (OPN) expression” value [2] was 4-6, the Osteoprotegerin/TNFRSF11B expression [2] was <1 and the P-Selectin/CD62P expression [2] was >10. For the same molecule, the PD-EGF/Thymidine phosphorylase expression [2] was <1, the PDGF-BB expression [2] was 1-2 and the “Pentraxin 2/SAP expression” value [2] was 1-2. For the same molecule, the “Pentraxin 3/TSG-14 expression” value [2] was <1, the Periostin/OSF-2 expression [2] was <1 and the Pref-1/DLK-1/FA1 expression [2] was 6-10. The Proliferin expression [2] was 6-10, the “Proprotein Convertase 9/PCSK9 expression” value [2] was <1 and the RAGE expression [2] was <1. For the same molecule, the RBP4 expression [2] was 1-2, the Reg3G expression [2] was 6-10 and the Resistin expression [2] was 2-4. The “Serpin E1/PAI-1 expression” value [2] was 6-10, the “Serpin F1/PEDF expression” value [2] was <1 and the TIM-1/KIM-1/HAVCR expression [2] was <1. For the same molecule, the TNF-α expression [2] was 1-2, the Thrombopoeitin expression [2] was <1 and the VCAM-1/CD106 expression [2] was 6-10. For the same molecule, the VEGF expression [2] was <1, the WISP-1/CCN4 expression [2] was <1 and the “sICAM-1 (CD54) expression” value [2] was 1-2. The “LIX (CXCL5) level” value [3] was “markedly reduced”, the OPN expression [3] was “reduced” and the “increased expression of cytokines in Dsg2^mut/mut hearts” value (in most, but not all, cases) was “blunted or fully normalized”.
